Measurements: PMC5458078, “Global mapping of CARM1 substrates defines enzyme specificity and substrate recognition” (Nature Communications, 2017)

Columns and labels:
MCF7 cells = assay: Quantitative nanoLC-MS/MS (TMT) of ADMA-containing peptides, CARM1 KO vs parental; type: cell-based, human; set-up: Fold change KO/WT: scale not given here
MCF7 CARM1 KO cells = assay: Quantitative MS of ADMA-containing peptides in MCF7 CARM1 KO cells expressing CARM1 28-608 or CARM1 140-608, and in CARM1 KO; type: cell-based, human
[1] = MCF7 CARM1 knockout vs wild type, 3 biological replicates each, values are on log2 scale
[2] = difference of log2 means, CARM1 140-608 vs WT
[3] = difference of log2 means, KO vs WT
[4] = ADMA-containing peptide, CARM1 knockout (KO) vs wild type (WT) MCF7 cells, 6-plex TMT experiment #1, three biological replicates each, sheet "MCF7"
[5] = CARM1 140-608 versus WT, mean of three replicates (log2)
[6] = KO versus WT, mean of three replicates (log2)
[7] = CARM1 140-608 versus WT, difference of mean log2 values
[8] = CARM1 KO versus WT, difference of mean log2 values
[9] = ADMA-containing peptide, MCF7, CARM1 knockout (KO1-3) vs wild type (WT1-3), TMT 6-plex experiment #1
[10] = CARM1 140-608 vs WT, mean of 3 replicates (log2 scale)
[11] = KO vs WT, mean of 3 replicates (log2 scale)
[12] = log2 scale ratio, mean of n = 3
[13] = mean, CARM1 140-608 versus WT (log2 scale)
[14] = mean, CARM1 KO versus WT (log2 scale)
[15] = MCF7, CARM1 knockout vs wild type, n = 3 each
[16] = ratio on log2 scale, mean of 3 replicates
[17] = MCF7, CARM1 KO vs WT, three biological replicates each
[18] = CARM1 140-608 vs WT, mean of 3 replicates, log2
[19] = KO vs WT, mean of 3 replicates, log2
[20] = MCF7, CARM1 KO (KO1-KO3) vs wild type (WT1-WT3)

QSSATSSFGGLGGGSVrFGPGVAFR
Fold change KO/WT (MCF7 cells; [1]): -2.868 | CARM1 140-608/WT (MCF7 CARM1 KO cells; [2]): -2.723 | KO/WT (MCF7 CARM1 KO cells; [3]): -4.023

AMLPGSPLFTrAPPPK
Fold change KO/WT (MCF7 cells; [4]): -3.62 | CARM1 140-608/WT (MCF7 CARM1 KO cells; [5]): -2.658 | KO/WT (MCF7 CARM1 KO cells; [6]): -3.62

NPHTLGLSrYHPYGK
Fold change KO/WT (MCF7 cells; CARM1 KO vs wild type MCF7 cells, 3 biological replicates each): -0.4466 | CARM1 140-608/WT (MCF7 CARM1 KO cells; [7]): -0.4138 | KO/WT (MCF7 CARM1 KO cells; [8]): -0.4466

SAPWNSFLPPPPPMPGPrLGPGKPGLK
Fold change KO/WT (MCF7 cells; [9]): -1.936 | CARM1 140-608/WT (MCF7 CARM1 KO cells; [10]): -1.2 | KO/WT (MCF7 CARM1 KO cells; [11]): -1.936

GVVNTAVSAAVQAVrGrGrGTLTr
Fold change KO/WT (MCF7 cells; [9]): -0.6248 | CARM1 140-608/WT (MCF7 CARM1 KO cells; [12]): -0.4677 | KO/WT (MCF7 CARM1 KO cells; [12]): -0.6727

GVVDSDDLPLNVSr
Fold change KO/WT (MCF7 cells; [1]): -0.9856 | CARM1 140-608/WT (MCF7 CARM1 KO cells; [13]): -0.04605 | KO/WT (MCF7 CARM1 KO cells; [14]): -1.284

GILPMNPrNMMNHSQVGQGIGIPSR
Fold change KO/WT (MCF7 cells; [15]): -1.864 | CARM1 140-608/WT (MCF7 CARM1 KO cells; [16]): -1.1659 | KO/WT (MCF7 CARM1 KO cells; [16]): -1.864

NRPAIArGAAGGGGR
Fold change KO/WT (MCF7 cells; [17]): 0.06918 | CARM1 140-608/WT (MCF7 CARM1 KO cells; [18]): -0.06003 | KO/WT (MCF7 CARM1 KO cells; [19]): 0.534

APPGGLHAPrLSLEGAArGAAEAK
Fold change KO/WT (MCF7 cells; [17]): -2.606 | CARM1 140-608/WT (MCF7 CARM1 KO cells; [18]): -2.013 | KO/WT (MCF7 CARM1 KO cells; [19]): -2.606

LrQQLQAK
Fold change KO/WT (MCF7 cells; [4]): -3.626 | CARM1 140-608/WT (MCF7 CARM1 KO cells; [2]): -1.5575 | KO/WT (MCF7 CARM1 KO cells; [3]): -2.723

SPFLGSArPrLrFSPYQIPVTIPPSTSLLTTGLASEGSK
Fold change KO/WT (MCF7 cells; [9]): -3.915 | CARM1 140-608/WT (MCF7 CARM1 KO cells; [12]): -2.053 | KO/WT (MCF7 CARM1 KO cells; [12]): -3.915

NHPrVYQNR
Fold change KO/WT (MCF7 cells; [9]): 0.9632 | CARM1 140-608/WT (MCF7 CARM1 KO cells; [12]): -0.04969 | KO/WT (MCF7 CARM1 KO cells; [12]): 0.9632

QLrMQLQQrLQGQQFLNQSR
Fold change KO/WT (MCF7 cells; [4]): -2.764 | CARM1 140-608/WT (MCF7 CARM1 KO cells; [5]): -0.1108 | KO/WT (MCF7 CARM1 KO cells; [6]): -1.926

VFrYSTSLEK
Fold change KO/WT (MCF7 cells; [20]): 0.0856 | CARM1 140-608/WT (MCF7 CARM1 KO cells; [10]): 0.01169 | KO/WT (MCF7 CARM1 KO cells; [11]): 0.0856

FGGPVHHQAQrFR
Fold change KO/WT (MCF7 cells; [15]): -0.6051 | CARM1 140-608/WT (MCF7 CARM1 KO cells; [16]): -0.8111 | KO/WT (MCF7 CARM1 KO cells; [16]): -0.6051

TRNPFLTGLSAPSPTNPFGAGEPGrPTLNQMR
Fold change KO/WT (MCF7 cells; [15]): -1.766 | CARM1 140-608/WT (MCF7 CARM1 KO cells; [16]): -1.179 | KO/WT (MCF7 CARM1 KO cells; [16]): -1.766

LITFQLrHILK
Fold change KO/WT (MCF7 cells; [9]): -5.219 | CARM1 140-608/WT (MCF7 CARM1 KO cells; [7]): -4.254 | KO/WT (MCF7 CARM1 KO cells; [8]): -5.219

QLESLWSDSPAPPGPQAGPPSRPPrYSSSSIPEPFGSR
Fold change KO/WT (MCF7 cells; [20]): -2.771 | CARM1 140-608/WT (MCF7 CARM1 KO cells; [5]): -1.865 | KO/WT (MCF7 CARM1 KO cells; [6]): -2.771

YLQTVQYGVHGNFPrLSYPTFFPR
Fold change KO/WT (MCF7 cells; [15]): -2.556 | CARM1 140-608/WT (MCF7 CARM1 KO cells; [13]): -2.496 | KO/WT (MCF7 CARM1 KO cells; [14]): -3.476

SQAPArYSLQSANASSLSSGQLK
Fold change KO/WT (MCF7 cells; [17]): -4.438 | CARM1 140-608/WT (MCF7 CARM1 KO cells; [18]): -3.491 | KO/WT (MCF7 CARM1 KO cells; [19]): -4.438

APGPrGSYLGGYSAGR
Fold change KO/WT (MCF7 cells; [20]): -0.1976 | CARM1 140-608/WT (MCF7 CARM1 KO cells; [10]): -0.09328 | KO/WT (MCF7 CARM1 KO cells; [11]): -0.2416

LQGQQFLNQSrQALELK
Fold change KO/WT (MCF7 cells; [4]): -1.9617 | CARM1 140-608/WT (MCF7 CARM1 KO cells; [5]): 0.6173 | KO/WT (MCF7 CARM1 KO cells; [6]): -0.8589

APPSFPPPAASrGGLGGTR
Fold change KO/WT (MCF7 cells; [9]): 0.1973 | CARM1 140-608/WT (MCF7 CARM1 KO cells; [12]): -0.3832 | KO/WT (MCF7 CARM1 KO cells; [12]): 0.1973

FDGQPGQPSLLPrFDGLHGQPGPrFER
Fold change KO/WT (MCF7 cells; [4]): -2.047 | CARM1 140-608/WT (MCF7 CARM1 KO cells; [5]): -1.6986 | KO/WT (MCF7 CARM1 KO cells; [6]): -2.399

SQGAQPQQVTLrLALR
Fold change KO/WT (MCF7 cells; [4]): -1.987 | CARM1 140-608/WT (MCF7 CARM1 KO cells; [5]): -1.727 | KO/WT (MCF7 CARM1 KO cells; [6]): -1.987

EELLrHQLLEK
Fold change KO/WT (MCF7 cells; [17]): -4.489 | CARM1 140-608/WT (MCF7 CARM1 KO cells; [18]): -4.245 | KO/WT (MCF7 CARM1 KO cells; [19]): -5.464

SVVESSAPGANNLQVNALVArLPLLLPR
Fold change KO/WT (MCF7 cells; [20]): -2 | CARM1 140-608/WT (MCF7 CARM1 KO cells; [10]): -0.343 | KO/WT (MCF7 CARM1 KO cells; [11]): -2.6091

GIPLDAAAAYYLPrHLAPNPTYPHLYPPYLIrGYPDTAALENR
Fold change KO/WT (MCF7 cells; [4]): -1.386 | CARM1 140-608/WT (MCF7 CARM1 KO cells; [5]): -0.9413 | KO/WT (MCF7 CARM1 KO cells; [6]): -1.386

APVFPGrGSYSNrGNYNR
Fold change KO/WT (MCF7 cells; [1]): 0.06661 | CARM1 140-608/WT (MCF7 CARM1 KO cells; [13]): 0.3143 | KO/WT (MCF7 CARM1 KO cells; [14]): -0.1859

ASrGrGGLGPSWASANSGSGGSrGK
Fold change KO/WT (MCF7 cells; [1]): 0.06985 | CARM1 140-608/WT (MCF7 CARM1 KO cells; [13]): 0.01356 | KO/WT (MCF7 CARM1 KO cells; [14]): 0.5944

FAPrGAPHFrFIIAGR
Fold change KO/WT (MCF7 cells; [9]): -0.1223 | CARM1 140-608/WT (MCF7 CARM1 KO cells; [12]): -0.6829 | KO/WT (MCF7 CARM1 KO cells; [12]): -0.5952

MGTPVPrPPQDMGQIGVrTPLGPRVAAPVGPVGPTPTVLPMGAPVPrPR
Fold change KO/WT (MCF7 cells; [20]): -3.625 | CARM1 140-608/WT (MCF7 CARM1 KO cells; [10]): -2.791 | KO/WT (MCF7 CARM1 KO cells; [11]): -3.834

GLPTTTQrVGVPTAVQNLAPrAAVAAAAPrAVAPYK
Fold change KO/WT (MCF7 cells; [4]): -2.96 | CARM1 140-608/WT (MCF7 CARM1 KO cells; [5]): -1.934 | KO/WT (MCF7 CARM1 KO cells; [6]): -2.638
